Reference: patent US20110015067A1, “Herbicidal Compositions Comprising Pyroxasulfone” (BASF SE, priority 2008, published 2011)

Columns and labels:
Assay type in all cases: in vivo
SETFA (Setaria faberii) = experiment: pre-emergence greenhouse test
Description: (§1) For the pre-emergence treatment, directly after sowing the active compounds, which had been suspended or emulsified in water, were applied by means of finely distributed nozzles. The containers were irrigated gently to promote germination and growth and subsequently covered with transparent plastic hoods until plant had rooted. This cover caused uniform germination of the tests plants, unless this was adversely affected by active compounds.
(§2) The respective herbicides A and/or safener were formulated as 10% by weight strength suspension concentrate and introduced to the spray liquor with the amount of solvent system used for applying the active compound. Herbicide B and/or safener were used as commercially available formulations and introduced to the spray liquor with the amount of solvent system used for applying the active compound. In the examples, the solvent used was water.
(§3) The test period extended over 20 days. During this time, the plants were tended, and their response to the treatments with active compound was evaluated.
(§4) In the following experiments, the herbicidal activity for the individual herbicide compounds (solo application) and of the mixture was assessed 8 days after treatment (8 DAT) and/or 20 days after treatment (20 DAT).
(§5) The evaluation for the damage caused by the chemical compositions was carried out using a scale from 0 to 100%, compared to the untreated control plants. Here, 0 means no damage and 100 means complete destruction of the plants.

[1] = system: PANDI (Panicum dichotomiflorum); experiment: pre-emergence greenhouse test; conditions: PANDI pre-emergence 7.5 g ai/ha
Description: as §1, §2, §3, §4, §5

SOLNI (Solanum nigrum) = experiment: pre-emergence greenhouse test; conditions: for observed activity in % destruction: pre-emergence, 7.5 g ai/ha
Description: as §1, §2, §3, §4, §5

SETVI (Setaria viridis) = experiment: pre-emergence greenhouse test
Description: as §1, §2, §3, §4, §5

[2] = system: AMBEL (Ambrosia artemisifolia); experiment: pre-emergence greenhouse test; conditions: for observed activity in % destruction: pre-emergence, 15 g ai/ha
Description: as §1, §2, §3, §4, §5

ERBVI = experiment: pre-emergence greenhouse test
Description: as §1, §2, §3, §4, §5

[3] = system: AMARE (Amaranthus retroflexus); experiment: pre-emergence greenhouse test
Description: as §1, §2, §3, §4, §5

PHBPU (Ipomoea purpurea) = experiment: pre-emergence greenhouse test
Description: as §1, §2, §3, §4, §5

[4] = system: COMBE (Commelina benghalensis); experiment: pre-emergence greenhouse test; conditions: for observed activity in % destruction: pre-emergence
Description: as §1, §2, §3, §4, §5

[5] = system: BRAPL (Brachiaria plantaginea); experiment: pre-emergence greenhouse test; conditions: BRAPL pre-emergence 7.5 g ai/ha
Description: as §1, §2, §3, §4, §5

[6] = system: PANMI (Panicum milliaceum); experiment: pre-emergence greenhouse test
Description: as §1, §2, §3, §4, §5

[7] = system: ALOMY (Alopecurus myosuroides); experiment: pre-emergence greenhouse test; conditions: for observed activity in % destruction: pre-emergence, 7.5 g ai/ha
Description: as §1, §2, §3, §4, §5

[8] = system: ECHCG (Echinochloa crus-galli); experiment: pre-emergence greenhouse test
Description: as §1, §2, §3, §4, §5

[9] = system: ALOMY (Alopecurus myosuroides); experiment: post-emergence greenhouse test
Description: (§6) For the post-emergence treatment, the test plants were first grown to a height of 3 to 20 cm, depending on the plant habit, and only then treated. Here, the herbicidal compositions were suspended or emulsified in water as distribution medium and sprayed using finely distributing nozzles.
as §2, §3, §4, §5

[10] = system: CHEAL (Chenopodium album); experiment: post-emergence greenhouse test; conditions: 15 g ai/ha
Description: as §6, §2, §3, §4, §5

[11] = SOLNI pre-emergence 7.5 g ai/ha
[12] = SETVI pre-emergence 3.75 g ai/ha
[13] = AMARE pre-emergence 3.75 g ai/ha
[14] = AMARE pre-emergence 7.5 g ai/ha
[15] = COMBE pre-emergence 3.75 g ai/ha
[16] = COMBE pre-emergence 7.5 g ai/ha
[17] = ALOMY pre-emergence 3.75 g ai/ha
[18] = ALOMY pre-emergence 7.5 g ai/ha
[19] = ECHCG pre-emergence 7.5 g ai/ha

COCc1cnc(C2=NC(C)(C(C)C)C(=O)N2)c(C(=O)O)c1 (stereo not shown) [imazamox]
observed % destruction 20 DAT (SETFA (Setaria faberii); SETFA pre-emergence 3.75 g ai/ha): 30% | observed % destruction 20 DAT (SETFA (Setaria faberii); SETFA pre-emergence 7.5 g ai/ha): 60% | observed % destruction 20 DAT (SETFA (Setaria faberii); SETFA pre-emergence 15 g ai/ha): 85% | observed % destruction 8 DAT [1]: 20% | observed % destruction 20 DAT [1]: 75% | observed % destruction 20 DAT (SOLNI (Solanum nigrum); SOLNI pre-emergence 3.75 g ai/ha): 20% | observed % destruction 8 DAT (SOLNI (Solanum nigrum); [11]): 30% | observed % destruction 20 DAT (SOLNI (Solanum nigrum); [11]): 80% | observed % destruction 20 DAT (SOLNI (Solanum nigrum); SOLNI pre-emergence 15 g ai/ha): 85% | observed activity in % destruction (SOLNI (Solanum nigrum); 8 DAT): 30% | observed activity in % destruction (SOLNI (Solanum nigrum); 20 DAT): 80% | observed % destruction 8 DAT (SETVI (Setaria viridis); [12]): 0% | observed % destruction 20 DAT (SETVI (Setaria viridis); [12]): 20% | observed % destruction 20 DAT (SETVI (Setaria viridis); SETVI pre-emergence 7.5 g ai/ha): 90% | observed % destruction 8 DAT (SETVI (Setaria viridis); SETVI pre-emergence 15 g ai/ha): 85% | observed % destruction 20 DAT (SETVI (Setaria viridis); SETVI pre-emergence 15 g ai/ha): 95% | observed % destruction 8 DAT ([2]; AMBEL pre-emergence 15 g ai/ha): 50% | observed % destruction 20 DAT ([2]; AMBEL pre-emergence 15 g ai/ha): 80% | observed activity in % destruction ([2]; 8 DAT): 50% | observed activity in % destruction ([2]; 20 DAT): 80% | observed % destruction 20 DAT (ERBVI; ERBVI pre-emergence 3.75 g ai/ha): 0% | observed % destruction 20 DAT (ERBVI; ERBVI pre-emergence 7.5 g ai/ha): 0% | observed % destruction 20 DAT (ERBVI; ERBVI pre-emergence 15 g ai/ha): 20% | observed % destruction 8 DAT [3, 13]: 20% | observed % destruction 20 DAT [3, 13]: 30% | observed % destruction 8 DAT [3, 14]: 55% | observed % destruction 20 DAT [3, 14]: 80% | observed % destruction 8 DAT ([3]; AMARE pre-emergence 15 g ai/ha): 65% | observed % destruction 20 DAT ([3]; AMARE pre-emergence 15 g ai/ha): 95% | observed % destruction 20 DAT (PHBPU (Ipomoea purpurea); PHBPU pre-emergence 7.5 g ai/ha): 20% | observed % destruction 20 DAT (PHBPU (Ipomoea purpurea); PHBPU pre-emergence 15 g ai/ha): 70% | observed % destruction 8 DAT [4, 15]: 20% | observed % destruction 20 DAT [4, 15]: 30% | observed % destruction 8 DAT [4, 16]: 40% | observed % destruction 20 DAT [4, 16]: 35% | observed % destruction 8 DAT ([4]; COMBE pre-emergence 15 g ai/ha): 50% | observed % destruction 20 DAT ([4]; COMBE pre-emergence 15 g ai/ha): 75% | observed activity in % destruction ([4]; 3.75 g ai/ha, 8 DAT): 20% | observed activity in % destruction ([4]; 3.75 g ai/ha, 20 DAT): 30% | observed activity in % destruction ([4]; 7.5 g ai/ha, 8 DAT): 40% | observed activity in % destruction ([4]; 7.5 g ai/ha, 20 DAT): 35% | observed % destruction 8 DAT [5]: 0% | observed % destruction 20 DAT [5]: 45% | observed % destruction 20 DAT ([6]; PANMI pre-emergence 3.75 g ai/ha): 20% | observed % destruction 20 DAT ([6]; PANMI pre-emergence 7.5 g ai/ha): 30% | observed % destruction 8 DAT [7, 17]: 20% | observed % destruction 20 DAT [7, 17]: 40% | observed % destruction 8 DAT [7, 18]: 30% | observed % destruction 20 DAT [7, 18]: 40% | observed % destruction 8 DAT ([7]; ALOMY pre-emergence 15 g ai/ha): 50% | observed % destruction 20 DAT ([7]; ALOMY pre-emergence 15 g ai/ha): 80% | observed activity in % destruction ([7]; 8 DAT): 30% | observed activity in % destruction ([7]; 20 DAT): 40% | observed % destruction 20 DAT ([8]; ECHCG pre-emergence 3.75 g ai/ha): 0% | observed % destruction 8 DAT [8, 19]: 20% | observed % destruction 20 DAT [8, 19]: 10% | observed % destruction 8 DAT ([8]; ECHCG pre-emergence 15 g ai/ha): 60% | observed % destruction 20 DAT ([8]; ECHCG pre-emergence 15 g ai/ha): 75% | observed activity in % destruction ([9]; 3.75 g ai/ha, 8 DAT): 25% | observed activity in % destruction ([9]; 3.75 g ai/ha, 20 DAT): 30% | observed activity in % destruction ([9]; 7.5 g ai/ha, 8 DAT): 35% | observed activity in % destruction ([9]; 7.5 g ai/ha, 20 DAT): 35% | observed activity in % destruction ([10]; 8 DAT): 0% | observed activity in % destruction ([10]; 20 DAT): 0%
